# Laboratory results reported in PubChem BioAssay AID328 (DTP/NCI, 2004).
# Several values for one entry are separate records, joined by “and”; a condition that tells them apart may be missing. Equal values may be shown once. Toxic doses and inconclusive results are not listed.
# Tested on: BDF1 mice, P388 leukemia ip, median survival T/C
# Assay: NCI In Vivo Anticancer Drug Screen. Data for tumor model P388 Leukemia (intraperitoneal) in B6D2F1 (BDF1) mice
# Conditions: endpoint: median survival time, higher = longer survival
# Summary of the method: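 Read-out is survival of treated animals expressed relative to the vehicle group, as a T/C ratio.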
# [1] = dose: 100.0 mg/kg/injection, schedule: Q01DX009 (ip), vehicle: saline with Tween-80
# [2] = dose: 100.0 mg/kg/injection, schedule: Q04DX003 (ip), vehicle: saline with Tween-80
# [3] = dose: 200.0 mg/kg/injection, schedule: Q01DX009 (ip), vehicle: saline with Tween-80
# [4] = dose: 200.0 mg/kg/injection, schedule: Q04DX003 (ip), vehicle: saline with Tween-80
# [5] = dose: 400.0 mg/kg/injection, schedule: Q04DX003 (ip), vehicle: saline with Tween-80
# [6] = dose: 100.0 mg/kg/injection, schedule: Q04DX003 (ip), vehicle: saline
# [7] = dose: 200.0 mg/kg/injection, schedule: Q04DX003 (ip), vehicle: saline
# [8] = dose: 25.0 mg/kg/injection, schedule: Q04DX003 (ip), vehicle: saline with Tween-80
compound,measurement,setting,value
Cc1cc(C)cc(NC(=O)c2ccccc2N)c1,T/C,[1],95 % of control
same,T/C,[2],109 % of control
same,T/C,[3],95 % of control
same,T/C,[4],90 % of control
same,T/C,"dose: 400.0 mg/kg/injection, schedule: Q01DX009 (ip), vehicle: saline with Tween-80",104 % of control
same,T/C,[5],100 % of control
COc1cc(OC)c(OC)cc1/C=C/c1cc[n+](C)c2ccccc12,T/C,"dose: 6.25 mg/kg/injection, schedule: Q01DX009 (ip), vehicle: saline",111 % of control
same,T/C,"dose: 12.5 mg/kg/injection, schedule: Q01DX009 (ip), vehicle: saline",119 % of control
same,T/C,"dose: 16.0 mg/kg/injection, schedule: Q01DX009 (ip), vehicle: saline",111 % of control
same,T/C,"dose: 35.0 mg/kg/injection, schedule: Q01DX009 (ip), vehicle: saline",119 % of control
Cc1c(C(=O)O)nc(CC(O)C(Cl)(Cl)Cl)[nH]c1=O (centres undefined),T/C,"dose: 25.0 mg/kg/injection, schedule: Q04DX003 (ip), vehicle: Klucel (hydroxypropylcellulose) (HPC)",98 % of control
same,T/C,"dose: 50.0 mg/kg/injection, schedule: Q04DX003 (ip), vehicle: Klucel (hydroxypropylcellulose) (HPC)",97 % of control
same,T/C,"dose: 100.0 mg/kg/injection, schedule: Q04DX003 (ip), vehicle: Klucel (hydroxypropylcellulose) (HPC)",103 % of control
same,T/C,"dose: 200.0 mg/kg/injection, schedule: Q04DX003 (ip), vehicle: Klucel (hydroxypropylcellulose) (HPC)",100 % of control
same,T/C,"dose: 400.0 mg/kg/injection, schedule: Q04DX003 (ip), vehicle: Klucel (hydroxypropylcellulose) (HPC)",96 % of control
CCCCCCCCCCCCCCCCSc1ccc(C)cc1,T/C,"dose: 5.0 mg/kg/injection, schedule: Q04DX003 (ip), vehicle: saline sonified",105 % of control
same,T/C,"dose: 10.0 mg/kg/injection, schedule: Q04DX003 (ip), vehicle: saline sonified",105 % of control
same,T/C,"dose: 20.0 mg/kg/injection, schedule: Q04DX003 (ip), vehicle: saline sonified",100 % of control
same,T/C,"dose: 200.0 mg/kg/injection, schedule: Q04DX003 (ip), vehicle: other",100 % of control
same,T/C,"dose: 400.0 mg/kg/injection, schedule: Q04DX003 (ip), vehicle: other",100 % of control
Clc1ncnc2c1ncn2C1CCCO1 (centres undefined),T/C,[6],104 % of control
same,T/C,[7],104 % of control
COC(=O)/C(C)=C/C1N=C1c1ccccc1 (centres undefined),T/C,"dose: 100.0 mg/kg/injection, schedule: Q01DX001 (ip), vehicle: saline with Tween-80",120 % of control
O=S1(=O)C=CCCC=C1,T/C,"dose: 50.0 mg/kg/injection, schedule: Q01DX009 (ip), vehicle: Klucel (hydroxypropylcellulose) (HPC)",100 % of control
same,T/C,"dose: 100.0 mg/kg/injection, schedule: Q01DX009 (ip), vehicle: Klucel (hydroxypropylcellulose) (HPC)",89 % of control
Cc1ccc(S(=O)(=O)c2ccc(Sc3cccc[n+]3[O-])c3nonc23)cc1,T/C,"dose: 25.0 mg/kg/injection, schedule: Q01DX009 (ip), vehicle: saline with Tween-80",119 % of control
same,T/C,[1],111 % of control
O=C(CCCc1ccc(N(CCCl)CCCl)cc1)Nc1ccccc1,T/C,"dose: 25.0 mg/kg/injection, schedule: Q01DX009 (ip), vehicle: saline sonified",109 % of control
same,T/C,[8],120 % of control
same,T/C,"dose: 50.0 mg/kg/injection, schedule: Q01DX009 (ip), vehicle: saline sonified",100 % of control
same,T/C,"dose: 100.0 mg/kg/injection, schedule: Q01DX009 (ip), vehicle: saline sonified",113 % of control
same,T/C,[2],210 % of control
COc1ccc(CN(CCO)C(C)=O)cc1,T/C,"dose: 100.0 mg/kg/injection, schedule: Q01DX009 (ip), vehicle: saline",102 % of control
same,T/C,[6],100 % of control
same,T/C,"dose: 200.0 mg/kg/injection, schedule: Q01DX009 (ip), vehicle: saline",109 % of control
same,T/C,[7],100 % of control
same,T/C,"dose: 400.0 mg/kg/injection, schedule: Q01DX009 (ip), vehicle: saline",115 % of control
same,T/C,"dose: 400.0 mg/kg/injection, schedule: Q04DX003 (ip), vehicle: saline",95 % of control
COCCCNC1=C(C#N)C(=O)NC(c2cccs2)S1 (centres undefined),T/C,"dose: 50.0 mg/kg/injection, schedule: Q01DX009 (ip), vehicle: saline with Tween-80",100 % of control
same,T/C,[1],117 % of control
same,T/C,[3],121 % of control
CCN(CC)c1ccc(/C=C\c2c(C)cnc3ccccc23)cc1,T/C,[8],95 % of control
same,T/C,"dose: 50.0 mg/kg/injection, schedule: Q04DX003 (ip), vehicle: saline with Tween-80",95 % of control
same,T/C,[2],96 % of control and 110 % of control
same,T/C,[4],97 % of control
same,T/C,[5],97 % of control
CC1(C)OS2(c3ccccc3)OC(=O)c3cccc1c32 (centres undefined),T/C,"dose: 50.0 mg/kg/injection, schedule: Q04DX002 (ip), vehicle: saline",94 % of control
same,T/C,"dose: 100.0 mg/kg/injection, schedule: Q04DX002 (ip), vehicle: saline",100 % of control
same,T/C,"dose: 200.0 mg/kg/injection, schedule: Q04DX002 (ip), vehicle: saline",100 % of control
